{"source": "patent US20110059909A1", "about": "“METHODS FOR TREATING INFLAMMATORY DISORDERS” (priority 2004, published 2011)", "key": {"X-ALD patients": {"test_system": "X-ALD patients", "details": "cited from earlier work"}, "LacCer synthase (GalT-2)": {"target": "T1, LacCer synthase (GalT-2) (Rattus norvegicus, UniProt O88419)", "T1 construct": "using cell lysates derived from cells stimulated with LPS/IFNγ; endogenous in cells; host or cells: rat primary astrocytes", "T1 sequence (O88419 1-382)": "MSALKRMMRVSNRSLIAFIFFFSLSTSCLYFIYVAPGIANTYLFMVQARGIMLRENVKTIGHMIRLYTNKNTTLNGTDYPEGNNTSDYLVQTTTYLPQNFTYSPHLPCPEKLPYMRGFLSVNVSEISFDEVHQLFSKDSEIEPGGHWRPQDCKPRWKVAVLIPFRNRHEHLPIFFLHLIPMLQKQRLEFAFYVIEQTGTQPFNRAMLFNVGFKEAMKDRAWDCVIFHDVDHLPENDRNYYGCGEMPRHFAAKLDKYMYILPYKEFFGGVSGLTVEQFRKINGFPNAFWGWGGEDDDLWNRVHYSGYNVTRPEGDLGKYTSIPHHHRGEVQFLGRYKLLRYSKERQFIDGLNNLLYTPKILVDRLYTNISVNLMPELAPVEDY", "assay": "Measurement of [14C]LacCer synthesis in primary astrocytes (HPTLC)", "assay_type": "cell-based", "details": "TNFα 1 ng/ml", "protocol": "Cultured cells were incubated in growth medium containing [^14C]galactose (5 μCi/ml) for 24 h as described previously. The medium was removed, and the cell monolayer was washed with sterile PBS. After the stimulation with LPS/IFNγ (1 μg/ml; 10 U/ml) for various durations, cells were then harvested and washed with ice cold PBS and lysed by sonication. 200 μg of protein was used for extraction of lipids using Chloroform:Methanol:HCl (100:100:1). The organic phase was dried under nitrogen. Glycosphingolipids were resolved by high performance thin layer chromatography using chloroform/methanol/0.25% KCl (70:30:4, v/v/v) as the developing solvent. The gel area corresponding to LacCer was scraped, and radioactivity was measured employing “liquiscint” (NEN Life Science Products) as a scintillating fluid."}, "small GTPase Ras": {"test_system": "small GTPase Ras", "assay": "Quantification of Ras activation (GST-Raf-1 RBD pull-down) in primary astrocytes", "assay_type": "cell-based, rat", "details": "pretreated 0.5 h, TNFα", "protocol": "After stimulation, primary astrocytes in 6-well plates were washed with ice cold PBS and lysed in membrane lysis buffer (MLB; 0.5 ml of 25 mM HEPES, pH 7.5, 150 mM NaCl, 1% Igepal CA-630, 0.25% sodium deoxycholate, 10% glycerol, 10 mM MgCl2, 1 mM EDTA, 25 mM NaF, 1 mM of sodium orthovanadate, and EDTA free Complete™ protease inhibitor cocktail). After centrifugation (5,000×g) at 4° C. for 5 min, supernatant was used for Ras activation assay. One hundred μg of supernatant was used for binding with agarose conjugated Ras-binding domain (RBD) of Raf-1 which was expressed in BL21 (Invitrogen), Escherichia coli strain, transformed by pGEX-2T-GST-RBD in the presence of 0.1 mM of IPTG as described previously (Herrmann et al., 1995). The binding reaction was performed at 4° C. for 30 min in MLB. Following washing with MLB three times, Ras-RBD complex were denatured by adding of 2×SDS sample buffer. Ras protein was identified by western blot analysis with Ras antibodies from Upstate Biotechnology."}, "ERK1/2": {"test_system": "ERK1/2", "assay": "ERK1/2 activation (phospho-ERK1/2 immunoblot) in primary astrocytes", "assay_type": "cell-based, rat", "details": "pretreated 0.5 h, TNFα 20 min", "protocol": "(§1) For iNOS protein, the cells were washed with cold Tris buffered saline (TBS; 20 mM Trizma base, and 137 mM NaCl, pH 7.5), lysed in 1×SDS sample loading buffer (62.5 mM Trizma base, 2% w/v SDS, 10% glycerol), following sonication and centrifugation at 15,000×g for 5 min, the supernatant was used for the iNOS western immunoblot assay. The protein concentration of samples was determined with the detergent compatible protein assay reagent (Bio-Rad Laboratories, CA) using bovine serum albumin (BSA) as the standard. Sample was boiled for 3 min with 0.1 volumes of 10% β-mercaptoethanol and 0.5% bromophenol blue mix. Fifty μg of total cellular protein was resolved by electrophoresis on 8 or 12% polyacrylamide gels, electro-transferred to polyvinylidene difluoride (PVDF) filter and blocked with Tween 20 containing Tris-buffered saline (TBST; 10 mM Trizma base-pH 7.4, 1% Tween 20, and 150 mM NaCl) with 5% skim milk. After incubation with antiserum against iNOS (BD PharMingen, CA), rat GalT-2 (Abjent Inc., CA), H-Ras (Upstate Biotechnology, CA), GFAP (Santa Cruz Biotech, CA), or phospho-specific ERK1/2 (Cell signaling Tech Inc., MA), or pIκ-B (Signal Transduction), in PVDF buffer for 2 h at room temperature, the filters were washed 3 times with TBST buffer and then incubated with horseradish peroxidase conjugated anti-rabbit or mouse IgG for 1 h. The membranes were detected by autoradiography using ECL-plus (Amersham Pharmacia Biotech) after washing with TBST buffer."}, "rat primary astrocytes": {"test_system": "rat primary astrocytes", "assay": "BrdU incorporation assay, proliferation of primary astrocytes", "assay_type": "cell-based", "details": "pretreated 0.5 h (AS: 48 h after transfection), TNFα 1 ng/ml 18 h, BrdU incorporation", "protocol": "Primary astrocyte-enriched cultures were prepared from the whole cortex of one day old Sprague-Dawley rats as described earlier (Pahan et al., 1998b). Briefly, the cortex was rapidly dissected in ice-cold calcium/magnesium free Hanks Balanced Salt Solution (HBSS) (Gibco, Grand Island, N.Y.) at pH 7.4 as described previously (Won et al., 2001). The tissue was then minced, incubated in HBSS containing trypsin (2 mg/ml) for 20 min and washed twice in plating medium containing 10% FBS and 10 μg/ml gentamicin, and then disrupted by triturating through a Pasteur pipette following which cells were seeded in 75-cm^2 culture flasks (Falcon, Franklin, N.J.). After incubation at 37° C. in 5% CO2 for 1 day, the medium was completely changed to the culture medium (DMEM containing 5% FBS and 10 μg/ml gentamicin). The cultures received half exchanges with fresh medium twice a week. After 14-15 days the cells were shaken for at least 24 h on an orbital shaker to remove the microglia and then seeded on multi-well tissue culture dishes. The cells were incubated with serum-free DMEM for 24 h prior to the incubation with drugs.\nProliferation of primary astrocytes was assayed by using the Cell proliferation ELISA, BrdU colorimetric assay kit (Roche, Germany) according to manufacturer's protocol. Briefly, cells were seeded in 96 well plates in quadruplicate and following overnight serum starvation were stimulated with mitogenic stimulants. 2 h before termination of proliferation assay, BrdU (10 μM) was added to each well following which cells were fixed and levels of incorporated BrdU were assayed by using a conjugated anti-BrdU enzyme. Colorimetric analysis was done by measuring absorbance at 370 nm using a spectramax MAX 190 (Molecular devices) multi-well plate reading spectrophotometer."}, "GFAP": {"test_system": "GFAP", "assay": "GFAP mRNA (real time PCR) and protein (immunoblot) in TNFα-stimulated primary astrocytes", "assay_type": "cell-based, rat", "details": "TNFα 1 ng/ml; mRNA 8 h, protein 18 h", "protocol": "as §1"}, "GalT-2": {"test_system": "GalT-2", "assay": "GalT-2 activity assay on cell lysates", "assay_type": "cell-based, rat", "details": "LY pretreatment", "protocol": "The activity of GalT-2 was measured using [^3H]UDP-galactose as the galactose donor and GlcCer as the acceptor as described previously (Yeh et al., 2001). Briefly, cells were harvested in PBS and cell pellets were suspended in Triton X-100 lysis buffer. Cell lysates were sonicated and following protein quantification, 100 μg of cell lysate was added to reaction mixture containing […] of cacodylate buffer (pH 6.8), 1 mM Mn/Mg, 0.2 mg/ml Triton X-100 (1:2 v/v), 30 nmol of GluCer and […] of UDP-[^3H]galactose in a total volume of 100 μl. The reaction was terminated by adding 10 μl of 0.25M EDTA, 10 μl of 0.5M KCl and 500 μl of Chloroform/Methanol (2:1 v/v) and the products were separated by centrifugation. The lower phase was collected and dried under nitrogen. Following resolution on HPTLC plates, the gel was cut out and radioactivity was measured in a scintillation counter. Assay without exogenous GluCer served as blank and their radioactivity counts were subtracted from all respective data points."}, "mice": {"test_system": "mice", "details": "cited from earlier work"}, "[1]": {"test_system": "primary cultured rat neocortical explants", "details": "cited from earlier work"}, "[2]": {"test_system": "primary cultured rat neocortical explants", "details": "cited from earlier work", "remark": "listed apart in the source"}}, "data": [{"smiles": "CCCCCCCC/C=C\\CCCCCCCC(=O)OCC(COC(=O)CCCCCCC/C=C\\CCCCCCCC)OC(=O)CCCCCCC/C=C\\CCCCCCCC", "note": "[trioleate]", "values": [{"measurement": "Reduction of VLCFA", "setting": "X-ALD patients", "value": 50, "unit": "%"}]}, {"smiles": "O=c1cc(N2CCOCC2)oc2c(-c3ccccc3)cccc12", "note": "[LY, 2-(4-Morpholinyl)-8-phenyl-4H-1-benzopyran-4-one]", "values": [{"measurement": "[14C]LacCer synthesis upon TNFα-stimulation", "setting": "LacCer synthase (GalT-2)", "value": "inhibited"}, {"measurement": "TNFα-induced Ras activation", "setting": "small GTPase Ras", "value": "inhibited"}, {"measurement": "TNFα-induced ERK1/2 phosphorylation", "setting": "ERK1/2", "value": "inhibited"}, {"measurement": "TNFα-induced astrocyte proliferation", "setting": "rat primary astrocytes", "value": "significantly attenuated"}, {"measurement": "TNFα-induced GFAP mRNA and protein expression", "setting": "GFAP", "value": "inhibited"}, {"measurement": "TNFα-induced GalT-2 activation", "setting": "GalT-2", "value": "inhibition"}]}, {"smiles": "CCCCCCCCCC(=O)N[C@@H](CN1CCOCC1)[C@@H](O)c1ccccc1", "note": "[L-threo PDMP]", "values": [{"measurement": "LD50 values, L-threo PDMP compared to D-threo PDMP", "setting": "mice", "value": "higher"}, {"measurement": "Neurite outgrowth", "setting": "[1]", "value": "stimulated"}, {"measurement": "GSL biosynthesis", "setting": "[2]", "value": "stimulated"}]}]}
